We go through two molecules from patent publication US20140113904A1, “TREATMENT OF CANCER WITH TOR KINASE INHIBITORS” (SIGNAL PHARMACEUTICALS, LLC, priority 2012, published 2014).

The subject of one assay is 4E-BP1(T46). As to the kind of experiment: Phospho-4E-BP1(T46) in PC3 cell lysates, Luminex multiplex. It is filed as cell-based, human. Particulars: PC3, 1 hour exposure; read-out: p-4E-BP1(T46) IC50. An excerpt: (§1) The direct substrate for TORC1 was 4E-BP 1(T46) and indirect downstream substrate was S6RP(S235/S236). The direct substrate for TORC2 was Akt(S473) and indirect downstream substrates measured were GSK3β(S9) and PRAS40(T246). Additionally, the phosphorylation status of Akt(T308), a phosphorylation site for PDK1 was monitored.
(§2) The multiplex Luminex assay format differs from conventional enzyme-linked immunosorbent assay (ELISA) in that the multiplex capture antibody is attached to a polystyrene bead whereas the ELISA capture antibody is attached to the microplate well. The use of the suspension bead-based technology enables the multiplexing capabilities of the Luminex assays. The xMAP® technology uses 5.6 micron polystyrene microspheres, which are internally dyed with red and infrared fluorophores of differing intensities. Each bead is given a unique number, or bead region, allowing differentiation of one bead from another. Beads covalently bound to different specific antibodies can be mixed in the same assay, utilizing a 96-well microplate format. At the completion of the sandwich immunoassay, beads can be read, using the Luminex 100™ or Luminex 200 detection system, in single-file by dual lasers for classification and quantification of each analyte. […]

The next assay deals with PRAS40(T246). As to the kind of experiment: Phospho-PRAS40(T246) in PC3 cell lysates, Luminex multiplex. It is filed as cell-based, human. Particulars: PC3, 1 hour exposure; read-out: p-PRAS40 (T246) IC50.
Text: as §1, §2

A further assay deals with PRAS40 (T246). The assay can be described thus: Phospho-PRAS40 (T246) in PC-3 cell lysates, MSD (Compound 2). It is filed as cell-based. Particulars: Homo sapiens; PC-3, 1 hour; read-out: mTORC2 PRAS40 (T246) IC50. As for the experimental part: The direct substrate for mTORC1 was 4E-BP1(T46) and the indirect downstream substrate was S6RP (S235/S236). The direct substrate for mTORC2 was AKT (S473) and the indirect downstream substrates measured were GSK3β(S9) and PRAS40 (T246). Additionally, the phosphorylation status of AKT (T308), a phosphorylation site for PDK1, was monitored. Concentration-response curves were plotted and IC50 values determined. Cells were plated in 96-well flat bottom plates at the required density (PC-3 cells/well) and the cells were allowed to equilibrate at 37° C., 5% CO2 overnight. […] After the incubation period, the culture media was removed carefully with an aspirator. The plate was placed on ice and 50 μL of 1× Tris Lysis Buffer was added to each well. The plate was placed on a shaker at 4° C. for 1 hour to lyse the cells. At that point, the plate was either frozen at -80° C. for later analysis or immediately assayed for phosphoproteins as described below. To monitor interassay variability, a reference standard was included in the assay for PC-3 cells and the coefficient of variation for assay of […]) was 9.3% (n=50) and for assay of p-AKT (S473) was 28.6% (n=50). The assay plate was incubated with 150 μL of MSD Blocking Buffer for 1 hour with shaking at room temperature. […] Then 150 μL of 1×MSD Read Buffer T was added to each well. The plate was read on the SECTOR Imager plate reader.

For the next assay, the system named is CD31. As to the kind of experiment: CD31 immunohistochemistry in PC3 tumors (Compound 2). The class given is in vivo, SCID mice. Particulars: 5 mg/kg oral QD for 6 days, 2 hours after last dose.
The test system of the next assay is pDNA-PK (S2056). The assay can be described thus: pDNA-PK (S2056) immunohistochemistry in PC3 tumors (Compound 2). The class given is in vivo, SCID mice. Particulars: 5 mg/kg QD for 6 days.

For the molecule `CO[C@H]1CC[C@H](N2C(=O)CNc3ncc(-c4ccc(C(C)(C)O)nc4)nc32)CC1` [Compound 1, 7-(6-(2-hydroxypropan-2-yl)pyridin-3-yl)-1-((1r,4r)-4-methoxycyclohexyl)-3,4-dihydropyrazino-[2,3-b]pyrazin-2(1H)-one], the IC50 in the assay with 4E-BP1(T46) is 410 nM; with PRAS40(T246), 140 nM.
As to `CCN1C(=O)CNc2ncc(-c3ccc(-c4nc[nH]n4)nc3C)nc21` [Compound 2, 1-ethyl-7-(2-methyl-6-(1H-1,2,4-triazol-3-yl)pyridin-3-yl)-3,4-dihydropyrazino[2,3-b]pyrazin-2(1H)-one], the IC50 in the assay on PRAS40 (T246) came to 49 nM. Moreover, the “reduction of CD31 positive blood vessels vs vehicle” value in the assay on CD31 is listed as 50%. Besides, the “reduction in threshold area positive for pDNA-PK (S2056) vs vehicle” value in the assay with pDNA-PK (S2056) (2 hours after the last dose) was found to be 98%. Also, the inhibition at 5 mg/kg in the assay on pDNA-PK (S2056) (Mus musculus, through 24 hours after the last dose, read-out: pDNA-PK (S2056) inhibition (normalized to total DNA-PKcs)) is roughly 90%.
